From patent US9901582B2, “Polymorphisms in ABCB1 associated with a lack of clinical response to medicaments” (Max-Planck-Gesellschaft zur Förderung der Wisenschaften e. …, priority 2007, dated 2018)
Like-named read-outs stand apart in the source and are kept apart here.

What was measured:
[1] = tested on: P-gp; details: after single administration, same mouse model; cited from earlier work
[2] = molecular target: ABCB1 (Homo sapiens, UniProt P08183); details: cited from earlier work; for Inducer: inducer of ABCB1
Chain of ABCB1 (P08183 whole entry): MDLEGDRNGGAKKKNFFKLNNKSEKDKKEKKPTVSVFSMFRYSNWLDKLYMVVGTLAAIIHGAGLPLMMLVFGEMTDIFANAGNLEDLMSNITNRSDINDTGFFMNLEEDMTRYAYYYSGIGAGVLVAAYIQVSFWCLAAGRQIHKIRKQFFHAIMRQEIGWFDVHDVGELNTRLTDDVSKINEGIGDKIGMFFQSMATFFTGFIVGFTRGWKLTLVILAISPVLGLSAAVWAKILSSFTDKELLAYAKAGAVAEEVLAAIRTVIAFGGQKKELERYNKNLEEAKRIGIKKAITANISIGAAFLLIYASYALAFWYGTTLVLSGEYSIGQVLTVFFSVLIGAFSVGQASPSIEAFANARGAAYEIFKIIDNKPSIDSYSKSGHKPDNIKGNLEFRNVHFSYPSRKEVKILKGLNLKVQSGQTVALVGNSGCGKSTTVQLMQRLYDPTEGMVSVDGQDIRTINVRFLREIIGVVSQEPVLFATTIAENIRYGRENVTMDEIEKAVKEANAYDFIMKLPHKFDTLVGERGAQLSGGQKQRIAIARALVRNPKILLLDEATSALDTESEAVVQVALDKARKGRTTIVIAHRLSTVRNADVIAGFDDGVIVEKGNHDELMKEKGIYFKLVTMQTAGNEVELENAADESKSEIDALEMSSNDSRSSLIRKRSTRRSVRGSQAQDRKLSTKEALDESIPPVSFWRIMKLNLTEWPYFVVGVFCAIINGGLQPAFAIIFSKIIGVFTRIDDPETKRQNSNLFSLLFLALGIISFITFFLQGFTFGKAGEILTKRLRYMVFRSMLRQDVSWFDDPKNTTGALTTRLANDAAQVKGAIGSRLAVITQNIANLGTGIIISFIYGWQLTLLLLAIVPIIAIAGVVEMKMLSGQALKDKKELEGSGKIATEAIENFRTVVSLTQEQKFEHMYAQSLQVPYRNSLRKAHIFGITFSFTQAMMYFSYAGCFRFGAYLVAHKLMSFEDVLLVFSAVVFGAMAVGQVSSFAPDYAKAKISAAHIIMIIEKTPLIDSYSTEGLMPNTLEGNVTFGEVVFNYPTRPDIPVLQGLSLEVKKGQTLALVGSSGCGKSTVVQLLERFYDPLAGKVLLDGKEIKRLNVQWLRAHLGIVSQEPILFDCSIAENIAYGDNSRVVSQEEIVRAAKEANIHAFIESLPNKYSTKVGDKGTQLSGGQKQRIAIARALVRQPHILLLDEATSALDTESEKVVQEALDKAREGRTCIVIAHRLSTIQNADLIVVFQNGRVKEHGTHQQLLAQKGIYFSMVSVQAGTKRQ

[3] = tested on: P-gp; details: mouse
[4] = tested on: ABCB1 gene; details: human, in vivo
Description: The antidepressant plasma concentration was monitored to assure clinically efficient drug levels.
To this end, we created the residuals of linear regression with the dependent variable drug dose or plasma concentration and the independent variables age and gender. These residuals and SNP genotyping data were tested in an ANOVA analysis for statistical differences between the genotypes. Empiric p-values were calculated by applying 10^6 permutations (residuals randomly redistributed over the genotypes). Fisher's product method (FPM) includes the residuals of the dose or plasma concentration variables and the genotype variables from the SNPs rs2235067, rs4148740, rs2032583, rs4148739, rs11983225, rs2235040, rs12720067, rs7787082, rs10248420, rs10280101 and rs2235015.

[5] = tested on: P-gp; assay: Organ and plasma concentrations of antidepressants in abcb1ab(−/−) knockout mice versus FVB/N wild-type controls (blood-organ barrier function); details: for brain concentrations, times higher in the mutant mice compared to wild-type littermates: 11 days, s.c. osmotic infusion pumps; for cerebrum concentration, abcb1ab (−/−) / kidney concentration, abcb1ab (−/−) / liver concentration, abcb1ab (−/−) / lung concentration, abcb1ab (−/−) / plasma concentration, abcb1ab (−/−) / spleen concentration, abcb1ab (−/−) / testes concentration, abcb1ab (−/−): abcb1ab(−/−) mice; for cerebrum concentration, abcb1ab (−/−) / kidney concentration, abcb1ab (−/−) / liver concentration, abcb1ab (−/−) / lung concentration, abcb1ab (−/−) / plasma concentration, abcb1ab (−/−) / spleen concentration, abcb1ab (−/−) / testes concentration, abcb1ab (−/−) / cerebrum concentration, control / kidney concentration, control / liver concentration, control / lung concentration, control / plasma concentration, control / spleen concentration, control / testes concentration, control: after 11 days s.c. via osmotic pumps; for penetration into the brain (organ/plasma concentration ratio), times higher in animals lacking P-gp than in control animals / ratio (−/−)/(+/+), cerebrum / ratio (−/−)/(+/+), kidney / ratio (−/−)/(+/+), liver / ratio (−/−)/(+/+), lung / ratio (−/−)/(+/+), plasma / ratio (−/−)/(+/+), spleen / ratio (−/−)/(+/+), testes / differences in testes/plasma ratio between knockout and control: 11 days s.c.; for penetration into the brain (organ/plasma concentration ratio), times higher in animals lacking P-gp than in control animals / differences in testes/plasma ratio between knockout and control: FIG. 1; for ratio (−/−)/(+/+), cerebrum: cerebrum concentration; for ratio (−/−)/(+/+), cerebrum / ratio (−/−)/(+/+), kidney / ratio (−/−)/(+/+), liver / ratio (−/−)/(+/+), lung / ratio (−/−)/(+/+), plasma / ratio (−/−)/(+/+), spleen / ratio (−/−)/(+/+), testes: knockout/control; for ratio (−/−)/(+/+), kidney: kidney concentration; for ratio (−/−)/(+/+), liver: liver concentration; for ratio (−/−)/(+/+), lung: lung concentration; for ratio (−/−)/(+/+), plasma: plasma concentration; for ratio (−/−)/(+/+), spleen: spleen concentration; for ratio (−/−)/(+/+), testes: testes concentration; for cerebrum concentration, control / kidney concentration, control / liver concentration, control / lung concentration, control / plasma concentration, control / spleen concentration, control / testes concentration, control: wild-type control mice
[6] = male, FVB/N wild-type, in vivo, sc, 11 days
[7] = male, abcb1ab(−/−) on FVB/N background versus FVB/N wild-type, in vivo, sc, 11 days
[8] = male, abcb1ab(−/−) on FVB/N background, in vivo, sc, 11 days

Fc1ccc([C@@H]2CCNC[C@H]2COc2ccc3c(c2)OCO3)cc1 [Paroxetine]
P-gp substrate status at the blood-brain barrier, earlier studies [1]: substrates of P-gp at the blood-brain barrier

CCN(CC)CCCC(C)Nc1ccnc2cc(Cl)ccc12 (centres unmarked) [Chloroquine]
Inhibitor ([2]; inhibitor of ABCB1): (x)

Cc1ncc2n1-c1ccc(Cl)cc1C(c1ccccc1F)=NC2 [Midazolam]
Inhibitor [2]: (x)

CN1CCN2c3ncccc3Cc3ccccc3C2C1 (centres unmarked) [Mirtazapine]
cerebrum concentration, control [3, 6]: 34.90 ng/g or ml | intestine concentration, control [3, 6]: 19.96 ng/g or ml | kidney concentration, control [3, 6]: 70.93 ng/g or ml | liver concentration, control [3, 6]: 12.39 ng/g or ml | lung concentration, control [3, 6]: 61.47 ng/g or ml | plasma concentration, control [3, 6]: 7.66 ng/g or ml | spleen concentration, control [3, 6]: 67.54 ng/g or ml | testes concentration, control [3, 6]: 61.22 ng/g or ml | ratio (−/−)/(+/+), cerebrum [3, 7]: 1.5 | ratio (−/−)/(+/+), intestine [3, 7]: 1.2 | ratio (−/−)/(+/+), kidney [3, 7]: 1.3 | ratio (−/−)/(+/+), liver [3, 7]: 1.7 | ratio (−/−)/(+/+), lung [3, 7]: 1.7 | ratio (−/−)/(+/+), plasma [3, 7]: 1.5 | ratio (−/−)/(+/+), spleen [3, 7]: 1.3 | ratio (−/−)/(+/+), testes [3, 7]: 1.8 | cerebrum concentration, abcb1ab (−/−) [3, 8]: 51.31 ng/g or ml | intestine concentration, abcb1ab (−/−) [3, 8]: 24.58 ng/g or ml | kidney concentration, abcb1ab (−/−) [3, 8]: 91.22 ng/g or ml | liver concentration, abcb1ab (−/−) [3, 8]: 20.59 ng/g or ml | lung concentration, abcb1ab (−/−) [3, 8]: 105.36 ng/g or ml | plasma concentration, abcb1ab (−/−) [3, 8]: 11.17 ng/g or ml | spleen concentration, abcb1ab (−/−) [3, 8]: 86.19 ng/g or ml | testes concentration, abcb1ab (−/−) [3, 8]: 110.29 ng/g or ml | P-gp substrate status at the BBB [3]: not influenced by P-gp | differences in testes/plasma ratio between knockout and control ([3]; in vivo, sc): not

O=c1n(CCCN2CCN(c3cccc(Cl)c3)CC2)nc2ccccn12 [Trazodone]
Inducer [2]: (x)

CCc1nn(CCCN2CCN(c3cccc(Cl)c3)CC2)c(=O)n1CCOc1ccccc1 [Nefazodone]
Inducer [2]: (x)

CN(C)CCC=C1c2ccccc2CCc2ccccc21 [Amitriptyline]
P-gp substrate status at the blood-brain barrier, earlier studies [1]: substrates of P-gp at the blood-brain barrier

CN(C)CCCC1(c2ccc(F)cc2)OCc2cc(C#N)ccc21 (centres unmarked) [Citalopram]
cerebrum concentration, control [3, 6]: 158.27 ng/g or ml | kidney concentration, control [3, 6]: 962.29 ng/g or ml | liver concentration, control [3, 6]: 238.02 ng/g or ml | lung concentration, control [3, 6]: 1238.71 ng/g or ml | plasma concentration, control [3, 6]: 106.71 ng/g or ml | spleen concentration, control [3, 6]: 446.96 ng/g or ml | testes concentration, control [3, 6]: 428.19 ng/g or ml | brain concentrations, times higher in the mutant mice compared to wild-type littermates [3, 7]: 3.0 times | cerebrum concentration, abcb1ab (−/−) [3, 8]: 480.93 ng/g or ml | kidney concentration, abcb1ab (−/−) [3, 8]: 795.74 ng/g or ml | liver concentration, abcb1ab (−/−) [3, 8]: 240.33 ng/g or ml | lung concentration, abcb1ab (−/−) [3, 8]: 1238.47 ng/g or ml | plasma concentration, abcb1ab (−/−) [3, 8]: 89.37 ng/g or ml | spleen concentration, abcb1ab (−/−) [3, 8]: 468.29 ng/g or ml | testes concentration, abcb1ab (−/−) [3, 8]: 687.92 ng/g or ml | P-gp substrate status at the BBB [3]: substrates of P-gp at the BBB | genotype-dependent differences in plasma levels of patients [4]: small significant difference | P-gp substrate status at the blood-brain barrier, earlier studies [1]: substrates of P-gp at the blood-brain barrier

CN(C)CC(c1ccc(O)cc1)C1(O)CCCCC1 [D-Venlafaxine, O-desmethyl venlafaxine]
brain concentrations, times higher in the mutant mice compared to wild-type littermates [5]: 4.1 times | cerebrum concentration, abcb1ab (−/−) [5]: 36.99 ng/g or ml | kidney concentration, abcb1ab (−/−) [5]: 127.32 ng/g or ml | liver concentration, abcb1ab (−/−) [5]: 88.22 ng/g or ml | lung concentration, abcb1ab (−/−) [5]: 44.91 ng/g or ml | plasma concentration, abcb1ab (−/−) [5]: 5.98 ng/g or ml | spleen concentration, abcb1ab (−/−) [5]: 33.80 ng/g or ml | testes concentration, abcb1ab (−/−) [5]: 39.19 ng/g or ml | penetration into the brain (organ/plasma concentration ratio), times higher in animals lacking P-gp than in control animals [5]: 3.6 times | ratio (−/−)/(+/+), cerebrum [5]: 4.1 | ratio (−/−)/(+/+), kidney [5]: 1.2 | ratio (−/−)/(+/+), liver [5]: 1.1 | ratio (−/−)/(+/+), lung [5]: 0.9 | ratio (−/−)/(+/+), plasma [5]: 1.1 | ratio (−/−)/(+/+), spleen [5]: 1.1 | ratio (−/−)/(+/+), testes [5]: 1.3 | differences in testes/plasma ratio between knockout and control [5]: smaller but still significant differences | cerebrum concentration, control [5]: 8.97 ng/g or ml | kidney concentration, control [5]: 107.88 ng/g or ml | liver concentration, control [5]: 83.15 ng/g or ml | lung concentration, control [5]: 50.63 ng/g or ml | plasma concentration, control [5]: 5.50 ng/g or ml | spleen concentration, control [5]: 29.42 ng/g or ml | testes concentration, control [5]: 30.18 ng/g or ml

COc1ccc(C(CN(C)C)C2(O)CCCCC2)cc1 (centres unmarked) [Venlafaxine]
P-gp substrate status at the blood-brain barrier, earlier studies [1]: substrates of P-gp at the blood-brain barrier | brain concentrations, times higher in the mutant mice compared to wild-type littermates [5]: 1.7 times | cerebrum concentration, abcb1ab (−/−) [5]: 456.32 ng/g or ml | kidney concentration, abcb1ab (−/−) [5]: 1054.88 ng/g or ml | liver concentration, abcb1ab (−/−) [5]: 323.22 ng/g or ml | lung concentration, abcb1ab (−/−) [5]: 672.59 ng/g or ml | plasma concentration, abcb1ab (−/−) [5]: 70.57 ng/g or ml | spleen concentration, abcb1ab (−/−) [5]: 564.20 ng/g or ml | testes concentration, abcb1ab (−/−) [5]: 842.61 ng/g or ml | penetration into the brain (organ/plasma concentration ratio), times higher in animals lacking P-gp than in control animals [5]: 1.8 times | ratio (−/−)/(+/+), cerebrum [5]: 1.7 | ratio (−/−)/(+/+), kidney [5]: 1.0 | ratio (−/−)/(+/+), liver [5]: 1.0 | ratio (−/−)/(+/+), lung [5]: 0.9 | ratio (−/−)/(+/+), plasma [5]: 1.0 | ratio (−/−)/(+/+), spleen [5]: 1.0 | ratio (−/−)/(+/+), testes [5]: 1.2 | differences in testes/plasma ratio between knockout and control [5]: smaller but still significant differences | P-gp substrate status at the BBB ([5]; this study, administration over 11 days): substrates of P-gp at the BBB | cerebrum concentration, control [5]: 261.14 ng/g or ml | kidney concentration, control [5]: 1035.27 ng/g or ml | liver concentration, control [5]: 314.59 ng/g or ml | lung concentration, control [5]: 747.38 ng/g or ml | plasma concentration, control [5]: 71.37 ng/g or ml | spleen concentration, control [5]: 581.95 ng/g or ml | testes concentration, control [5]: 715.92 ng/g or ml

O=C(CCCN1CCC(O)(c2ccc(Cl)cc2)CC1)c1ccc(F)cc1 [Haloperidol]
Inhibitor ([2]; inhibitor of ABCB1): (x)
